# Reference: patent US10034886B2, “GLP-1 receptor modulators” (Celgene International II SÀRL, priority 2014, dated 2018)
# Target: T1, GLP-1R (Homo sapiens, UniProt P43220)
# T1 construct: host or cells: GLP-1R CRE-bla CHO-K1 cells
# Test: EC20 GLP-1(9-36) PAM cAMP assay: dose response of compound in the presence of fixed concentration of GLP-1(9-36)
# Assay type: cell-based
# Details: GLP-1R CRE-bla CHO-K1 cells, compound dose response with fixed concentration of GLP-1(9-36), read-out: EC20 GLP-1(9-36) PAM EC50
# In short: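 Positive allosteric modulation read as cAMP accumulation: compound titrations (12 points) combined with an EC20 level of GLP-1(9-36) on CHO-K1 GLP-1R CRE-bla cells, IBMX present, 30 min, 37 °C, pH 7.4 buffer. Luminescence converted to cAMP via standards; non-linear fit gave EC50 and Emax.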
# T1 sequence (P43220 24-463): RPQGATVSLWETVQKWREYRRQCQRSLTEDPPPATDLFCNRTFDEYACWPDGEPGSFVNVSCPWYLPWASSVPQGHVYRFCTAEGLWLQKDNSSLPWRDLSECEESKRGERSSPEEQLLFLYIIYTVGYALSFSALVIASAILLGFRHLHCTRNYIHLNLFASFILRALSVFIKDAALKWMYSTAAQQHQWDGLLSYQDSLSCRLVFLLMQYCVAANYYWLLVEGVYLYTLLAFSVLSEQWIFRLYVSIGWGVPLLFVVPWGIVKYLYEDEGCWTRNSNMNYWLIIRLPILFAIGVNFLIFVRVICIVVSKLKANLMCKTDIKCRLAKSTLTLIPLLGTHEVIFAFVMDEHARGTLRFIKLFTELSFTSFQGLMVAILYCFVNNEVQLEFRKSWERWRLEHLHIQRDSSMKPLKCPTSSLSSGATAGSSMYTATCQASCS
# T1 sequence (P01275 100-127 partner limits assumed): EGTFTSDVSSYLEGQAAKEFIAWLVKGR
row,EC50,Structure (SMILES)
1,2500 to 5000 nM,CCCC1CCN(C(=O)C(C)(C)CNc2cnc(-c3ccc(C[C@H](NC(=O)c4ccc(C(C)(C)C)s4)C(=O)N4CC(C(=O)O)C4)cc3)nc2)CC1 [Compound 1497]
2,< 800 nM,COc1cccc(C2CCN(c3cnc(-c4ccc(C[C@H](NC(=O)c5ccc(C(C)(C)C)s5)C(=O)N5CC(C(=O)O)C5)cc4)nc3)CC2)c1 [Compound 1477]
3,< 800 nM,CCC[C@H]1CC[C@H](C2CCN(c3cnc(-c4ccc(CC(NC(=O)c5ccc(C(C)(C)C)s5)C(=O)NS(=O)(=O)CC(C)(C)C)cc4)nc3)CC2)CC1 (stereo partly shown) [Compound 1544]
4,800 to 2500 nM,C[C@@H](NC(=O)[C@H](Cc1ccc(-c2ncc(-c3ccc(N4CCCC4)cc3)cn2)cc1)NC(=O)c1ccc(C(C)(C)C)s1)C(=O)O [Compound 1300]
5,< 800 nM,CC(C)(C)c1ccc(C(=O)N[C@@H](Cc2ccc(-c3ncc(-c4ccc(-c5ccc(C(F)(F)F)cc5)cc4F)cn3)cc2)C(=O)N2CC(C(=O)O)C2)s1 [Compound 1218]
6,5000 to 10000 nM,CCCCC1CCN(C2CCN(c3cnc(-c4ccc(C[C@H](NC(=O)c5ccc(C(C)(C)C)s5)C(=O)N5CC(C(=O)O)C5)cc4)nc3)CC2)C(=O)C1 (stereo partly shown) [Compound 1506]
7,< 800 nM,CCCCC1CCC(C2CCN(c3cnc(-c4ccc(C[C@H](NC(=O)c5ccc(C(C)(C)C)s5)C(=O)N5CC(C(=O)O)C5)cc4)nc3)CC2)CC1 (stereo partly shown) [Compound 1428]
8,800 to 2500 nM,CCC[C@H]1CC[C@H](C2CCN(c3cnc(-c4ccc(CC(NC(=O)c5ccc(C(C)(C)C)s5)C(=O)NS(=O)(=O)CCC5CCC5)cc4)nc3)CC2)CC1 (stereo partly shown) [Compound 1541]
9,< 800 nM,CCC[C@H]1CC[C@H](C2CCN(c3cnc(-c4ccc(CC(NC(=O)c5ccc(C(C)(C)C)s5)C(=O)NS(=O)(=O)C(C)(C)C)cc4)nc3)CC2)CC1 (stereo partly shown) [Compound 1546]
10,< 800 nM,CCC[C@H]1CC[C@H](C2CCN(c3cnc(-c4ccc(C[C@H](NC(=O)c5cc6cc(OC)ccc6[nH]5)C(=O)N5CC(C(=O)O)C5)cc4)nc3)CC2)CC1 [Compound 1525]
11,< 800 nM,CCCc1ccc(-c2ccc(-c3cnc(-c4ccc(C[C@H](NC(=O)c5ccc(C(C)C)s5)C(=O)N5CC(C(=O)O)C5)cc4)nc3)c(F)c2)cc1 [Compound 1398]
12,< 800 nM,CCC[C@H]1CC[C@H](C2CCN(c3cnc(-c4ccc(C[C@H](NC(=O)c5ccc(C(C)(C)C)nc5)C(=O)N5CC(C(=O)O)C5)cc4)nc3)CC2)CC1 [Compound 1531]
13,< 800 nM,CCC[C@H]1CC[C@H](C2CCN(c3cnc(-c4ccc(CC(NC(=O)c5ccc(C(C)(C)C)s5)C(=O)NS(=O)(=O)CCOC)cc4)nc3)CC2)CC1 (stereo partly shown) [Compound 1540]
14,< 800 nM,CCC[C@H]1CC[C@H](C2CCN(c3cnc(-c4ccc(C[C@H](NC(=O)c5ccc(C(C)(C)C)s5)C(=O)N[C@@H](CC(=O)O)C(=O)O)cc4)nc3)CC2)CC1 [Compound 1463]
15,800 to 2500 nM,CCCCc1ccc(C2CN(c3cnc(-c4ccc(C[C@H](NC(=O)c5ccc(C(C)(C)C)s5)C(=O)N5CC(C(=O)O)C5)cc4)nc3)C2)cc1 [Compound 1503]
16,< 800 nM,CC(C)Oc1ccc(-c2ccc(-c3cnc(-c4ccc(C[C@H](NC(=O)c5ccc(C(C)(C)C)s5)C(=O)N5CC(C(=O)O)C5)cc4)nc3)c(F)c2)cc1 [Compound 1396]

# Same assay, conditions: dose response of compound in presence of fixed concentration of GLP-1(9-36), GLP-1R CRE-bla CHO-K1 cells, read-out: EC20 GLP-1(9-36) PAM EC50
row,EC50,Structure (SMILES)
1,2500 to 5000 nM,CCCCCCCOc1ccc(-c2cnc(-c3ccc(C[C@H](NC(=O)c4ccc(C(C)(C)C)cc4)C(=O)N[C@@H](CN)C(=O)O)cc3)nc2)cc1 [Compound 452]
2,800 to 2500 nM,CCCCCCCOc1ccc(-c2cnc(-c3ccc(C[C@H](NC(=O)c4ccc(C(C)(C)C)cc4)C(=O)N[C@@H](Cc4cnn(C)c4)C(=O)O)cc3)nc2)cc1 [Compound 576]
3,2500 to 5000 nM,CCC(CC)Oc1ccc(-c2cnc(-c3ccc(C[C@H](NC(=O)c4ccc(C(C)(C)C)s4)C(=O)NC(C(=O)O)C(O)c4ccccc4)cc3)nc2)cc1 (stereo partly shown) [Compound 935]
4,800 to 2500 nM,CCCCCCCOc1ccc(-c2cnc(-c3ccc(C[C@H](NC(=O)c4oc(C(C)(C)C)cc4C)C(=O)N4CC(C(=O)O)C4)cc3)nc2)cc1 [Compound 1101]
5,5000 to 10000 nM,CC(C)(C)c1ccc(C(=O)N[C@@H](Cc2ccc(-c3ncc(-c4ccc(-c5ccccc5)cc4)cn3)cc2)C(=O)N2CC[C@H](C(=O)O)C2)s1 [Compound 769]
6,2500 to 5000 nM,CCCCCCCOc1ccc(-c2cnc(-c3ccc(C[C@H](NC(=O)c4ccc(N5CCCC5)cc4)C(=O)NCCC(=O)O)cc3)nc2)cc1 [Compound 869]
7,800 to 2500 nM,CCCCCCCOc1ccc(-c2cnc(-c3ccc(C[C@H](NC(=O)c4ccc(C(C)(C)C)cc4)C(=O)N[C@@H](CC(=O)O)C(=O)NCCOC)cc3)nc2)cc1 [Compound 506]
8,< 800 nM,Cc1cc(-c2ccc(-c3cnc(-c4ccc(C[C@H](NC(=O)c5ccc(C(C)(C)C)s5)C(=O)N[C@H](C)C(=O)O)cc4)nc3)c(F)c2)ccc1OC(F)(F)F [Compound 1175]
9,< 800 nM,CCCCCC(=O)c1ccc(-c2cnc(-c3ccc(C[C@H](NC(=O)c4ccc(C(C)(C)C)s4)C(=O)N[C@H](C)C(=O)O)cc3)nc2)cc1 [Compound 738]
10,800 to 2500 nM,CCCCCCCOc1ccc(-c2cnc(-c3ccc(C[C@H](NC(=O)c4ccc(C5CC5)cc4)C(=O)N4CC(C(=O)O)C4)cc3)nc2)cc1 [Compound 1111]
11,5000 to 10000 nM,CC(C)(C)c1ccc(C(=O)N[C@@H](Cc2ccc(-c3ncc(-c4ccc(OCC5CCCC5)cc4)cn3)cc2)C(=O)N2CC(C(=O)O)C2)s1 [Compound 922]
12,2500 to 5000 nM,CCCCCCCOc1ccc(-c2cnc(-c3ccc(C[C@H](NC(=O)c4ccc(C(C)(C)C)cc4OC)C(=O)NC(C(=O)O)C(O)c4ccccc4)cc3)nc2)cc1 (stereo partly shown) [Compound 952]
13,2500 to 5000 nM,Cc1ccc(-c2cccc(-c3noc(-c4cnc(-c5ccc(C[C@H](NC(=O)c6ccc(C(C)(C)C)cc6)C(=O)NCCC(=O)O)cc5)nc4)n3)c2)cc1 [Compound 748]
14,< 800 nM,CC(C)(C)c1ccc(C(=O)N[C@@H](Cc2ccc(-c3ncc(-c4ccc([C@H]5CC[C@H](C)CC5)cc4)cn3)cc2)C(=O)N2CC(C(=O)O)C2)s1 [Compound 1176]
15,< 800 nM,CCCCCCCOc1ccc(-c2cnc(-c3ccc(CC(NC(=O)c4ccc(C(C)(C)C)s4)C(=O)N[C@@H](Cc4ccccc4)C(=O)O)cc3)nc2)cc1 (stereo partly shown) [Compound 415]
16,2500 to 5000 nM,CC(C)(C)c1ccc(C(=O)N[C@@H](Cc2ccc(-c3ncc(-c4ccc(OCC(F)(F)F)cc4)cn3)cc2)C(=O)NCCC(=O)O)cc1 [Compound 682]

row,EC50,Structure (SMILES)
1,< 800 nM,CCCCCCCOc1ccc(-c2cnc(-c3ccc(C[C@H](NC(=O)c4ccc(C(C)(C)C)s4)C(=O)N4CC[C@H](C(=O)NS(=O)(=O)CC(F)(F)F)C4)cc3)nc2)cc1 [Compound 887]
2,< 800 nM,CCCCCCCOc1ccc(-c2cnc(-c3ccc(C[C@H](NC(=O)c4ccc(C(C)(C)C)s4)C(=O)N[C@@H](CC(=O)N[C@@H](CO)C(=O)O)C(=O)O)cc3)nc2)cc1 [Compound 517]
3,800 to 2500 nM,CCCCCCCOc1ccc(-c2cnc(-c3ccc(C[C@H](NC(=O)c4ccc(C(C)(C)C)cc4)C(=O)N[C@H](CC)C(=O)O)cc3)nc2)cc1 [Compound 498]
4,2500 to 5000 nM,CCCCCCCOc1ccc(-c2cnc(-c3ccc(C[C@H](NC(=O)c4ccc(C(C)(C)C)cc4)C(=O)N[C@@H](CC(=O)O)C(=O)N4CCCCC4)cc3)nc2)cc1 [Compound 504]
5,< 800 nM,"CC[C@H]1CC[C@H](c2ccc(-c3cnc(-c4ccc(C[C@H](NC(=O)c5ccc(C(C)(C)C)s5)C(=O)N5CCC[C@H]5C(=O)O)cc4)nc3)cc2)CC1 [Compound 1128, ((S)-2-(5-(tert-butyl)thiophene-2-carboxamido)-3-(4-(5-(4-((1r,4r)-4-ethylcyclohexyl)phenyl)pyrimidin-2-yl)phenyl)propanoyl)-L-proline]"
6,800 to 2500 nM,CCCCCCCOc1ccc(-c2cnc(-c3ccc(C[C@H](NC(=O)c4ccc(C(C)(C)C)cc4)C(=O)NC(C(=O)O)c4ccc(C(F)(F)F)cc4)cc3)nc2)cc1 (stereo partly shown) [Compound 453]
7,800 to 2500 nM,CCCCCCCOc1ccc(-c2cnc(-c3ccc(C[C@H](NC(=O)c4cc5c(s4)CCC(C)C5)C(=O)N[C@H](C)C(=O)O)cc3)nc2)cc1 (stereo partly shown) [Compound 814]
8,2500 to 5000 nM,CCC(CC)Oc1ccc(-c2cnc(-c3ccc(C[C@H](NC(=O)c4ccc(C(C)(C)C)cc4)C(=O)NCCC(=O)O)cc3)nc2)cc1 [Compound 696]
9,800 to 2500 nM,CCCCCCCOc1ccc(-c2cnc(-c3ccc(CC(NC(=O)c4ccc(C(C)(C)C)s4)C(=O)N[C@@H](CCCCN)C(=O)O)cc3)nc2)cc1 (stereo partly shown) [Compound 427]
10,< 800 nM,CC(C)(C)c1ccc(C(=O)N[C@@H](Cc2ccc(-c3ncc(-c4ccc(-c5ccccc5)cc4)cn3)cc2)C(=O)N2CC(C(=O)O)C2)s1 [Compound 1090]
11,2500 to 5000 nM,CC(C)(C)c1ccc(C(=O)N[C@@H](Cc2ccc(-c3ncc(-c4nc(CC5CCCCC5)no4)cn3)cc2)C(=O)NCCC(=O)O)cc1 [Compound 747]
12,2500 to 5000 nM,CCCCCCCOc1ccc(-c2cnc(-c3ccc(C[C@H](NC(=O)c4ccc(C(C)(C)C)cc4)C(=O)N4CCC(C(=O)O)CC4)cc3)nc2)cc1 [Compound 578]
13,800 to 2500 nM,CCCCCCCOc1ccc(-c2cnc(-c3ccc(C[C@H](NC(=O)c4ccc(C(C)(C)C)cc4)C(=O)N[C@@H](CC(=O)NCCN)C(=O)O)cc3)nc2)cc1 [Compound 484]
14,< 800 nM,CCCCCCCOc1ccc(-c2cnc(-c3ccc(C[C@H](NC(=O)c4ccc(C(C)(C)C)cc4)C(=O)N[C@@H](CCC(N)=O)C(=O)O)cc3)nc2)cc1 [Compound 399]
15,5000 to 10000 nM,CCCCCCCc1noc(-c2cnc(-c3ccc(C[C@H](NC(=O)c4ccc(C(C)(C)C)cc4)C(=O)NCCC(=O)O)cc3)nc2)n1 [Compound 754]
16,800 to 2500 nM,CCCCCCCOc1ccc(-c2cnc(-c3ccc(C[C@H](NC(=O)c4ccc(C(C)(C)C)cc4)C(=O)NC(CO)CC(=O)O)cc3)nc2)cc1 (stereo partly shown) [Compound 550]

row,Structure (SMILES),EC50
1,CCCCCCCOc1ccc(-c2cnc(-c3ccc(C[C@H](NC(=O)c4ccc(C(C)(C)C)s4)C(=O)N4C5CCC4C(C(=O)O)C5)cc3)nc2)cc1 (stereo partly shown) [Compound 1049],800 to 2500 nM
